In one experiment the target is T1, human CYP11B1 (Homo sapiens, UniProt P15538).
T1 construct: The expression plasmids contains the ORF for either human/cyno CYP11B1 or CYP11B2; expressed in transfected cells
T1 sequence (P15538 25-503): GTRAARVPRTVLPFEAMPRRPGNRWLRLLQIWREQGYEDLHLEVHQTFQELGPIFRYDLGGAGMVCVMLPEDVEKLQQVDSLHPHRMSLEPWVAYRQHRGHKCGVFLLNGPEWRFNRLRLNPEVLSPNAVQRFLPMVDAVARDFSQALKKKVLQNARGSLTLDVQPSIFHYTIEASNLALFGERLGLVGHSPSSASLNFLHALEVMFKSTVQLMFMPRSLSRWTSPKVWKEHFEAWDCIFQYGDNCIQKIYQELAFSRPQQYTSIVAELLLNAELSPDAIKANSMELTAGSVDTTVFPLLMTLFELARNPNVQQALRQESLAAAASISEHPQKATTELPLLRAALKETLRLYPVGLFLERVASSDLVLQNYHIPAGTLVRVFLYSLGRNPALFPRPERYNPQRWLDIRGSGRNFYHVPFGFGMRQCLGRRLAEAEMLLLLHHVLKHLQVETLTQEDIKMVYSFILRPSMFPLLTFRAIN
The experiment can be described thus: G-402 cellular enzyme assay, human CYP11B1 (cortisol release, HTRF). The format is cell-based. To be noted: G-402 cells expressing human CYP11B1; 1 μM Deoxycortisol. An excerpt:
(§1) Herein we identified the use of the G-402 cell line as a host cell to ectopically express (transiently or stably) enzymes of the CYP11 family. Specifically we developed stable G-402 cells expressing ectopically human CYP11B1, human CYP11B2, human CYP11A1, cynmolgus CYP11B1 or cynomolgus CYP11B2 enzyme activity. Importantly the identified cell line G-402 expresses co-factors (adrenodoxin and adrenodoxin reductase) important for the activity of the CYP11 family and no relevant enzyme activity of the CYP11 family (in comparison to H295R cells) was detected in these cells. Therefore the G-402 cell line is uniquely suited as a host cell for the ectopic expression of enzymes from the CYP11 family. G-402 cells can be obtained from ATCC (CRL-1440) and were originally derived from a renal leiomyoblastoma.
(§2) The expression plasmids contains the ORF for either human/cyno CYP11B1 or CYP11B2 under the control of a suitable promoter (CMV-promoter) and a suitable resistance marker (neomycin). Using standard techniques the expression plasmid is transfected into G-402 cells and these cells are then selected for expressing the given resistance markers. Individual cell-clones are then selected and assessed for displaying the desired enzymatic activity using 11-Deoxycorticosterone (Cyp11B2) or 11-Deoxycortisol (Cyp11B) as a substrate.
(§3) G-402 cells expressing CYP11 constructs were established as described above and maintained in McCoy's 5a Medium Modified, ATCC Catalog No. 30-2007 containing 10% FCS and 400 μg/ml G418 (Geneticin) at 37° C. under an atmosphere of 5% CO2/95% air. Cellular enzyme assays were performed in DMEM/F12 medium containing 2.5% charcoal treated FCS and appropriate concentration of substrate (0.3-10 uM 11-Deoxycorticosterone, 11-Deoxycortisol or Corticosterone). For assaying enzymatic activity, cells were plated onto 96 well plates and incubated for 16 h. An aliquot of the supernatant is then transferred and analyzed for the concentration of the expected product (Aldosterone for CYP11B2; Cortisol for CYP11B1). The concentrations of these steroids can be determined using HTRF assays from CisBio analyzing either Aldosterone or Cortisol.
(§4) Inhibition of the release of produced steroids can be used as a measure of the respective enzyme inhibition by test compounds added during the cellular enzyme assay. The dose dependent inhibition of enzymatic activity by a compound is calculated by means of plotting added inhibitor concentrations (x-axes) vs. measured steroid/product level (y-axes). The inhibition is then calculated by fitting the following 4-parameter sigmoidal function (Morgan-Mercer-Flodin (MMF) model) to the raw data points using the least squares method:
(§5) [formula] wherein, A is the maximum y value, B is the EC50 factor determined using XLFit, C is the minimum y value and D is the slope value.
(§6) EC50 values for compounds claimed herein were tested with the G402-based assay system described. Cyp11B2 enzyme activity was tested in presence of 1 μM Deoxycorticosterone and variable amounts of inhibitors; Cyp11B1 enzyme activity was tested in presence of 1 μM Deoxycortisol and variable amounts of inhibitors.
(In general: TR-FRET usually uses a lanthanide donor and a delayed reading to cut background.)

The next experiment deals with T2, human CYP11B2 (Homo sapiens, UniProt P19099).
T2 construct: The expression plasmids contains the ORF for either human/cyno CYP11B1 or CYP11B2; expressed in transfected cells
T2 sequence (P19099 25-503): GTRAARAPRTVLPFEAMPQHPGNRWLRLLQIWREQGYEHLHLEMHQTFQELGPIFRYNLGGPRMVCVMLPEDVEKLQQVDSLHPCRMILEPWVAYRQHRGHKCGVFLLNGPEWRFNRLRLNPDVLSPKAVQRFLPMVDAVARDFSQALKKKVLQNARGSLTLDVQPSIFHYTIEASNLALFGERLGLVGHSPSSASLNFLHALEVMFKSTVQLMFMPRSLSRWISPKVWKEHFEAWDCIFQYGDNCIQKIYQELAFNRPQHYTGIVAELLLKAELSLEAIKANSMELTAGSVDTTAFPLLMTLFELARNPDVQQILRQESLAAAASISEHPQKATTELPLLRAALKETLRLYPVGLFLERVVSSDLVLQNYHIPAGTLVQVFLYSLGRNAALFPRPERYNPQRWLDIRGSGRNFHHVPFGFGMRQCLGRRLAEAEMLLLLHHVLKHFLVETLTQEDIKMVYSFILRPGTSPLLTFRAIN
The experiment in a line: G-402 cellular enzyme assay, human CYP11B2 (aldosterone release, HTRF). It counts as cell-based. As to conditions: G-402 cells expressing human CYP11B2; 1 μM Deoxycorticosterone.
Text: as §1, §2, §3, §4, §5, §6

The results in this text go back to patent US9505742B2, “3,4-dihydro-2H-isoquinoline-1-one and 2,3-dihydro-isoindol-1-one compounds” (Hoffmann-La Roche Inc., priority 2013, dated 2016).

As usually defined, the EC50 is the concentration needed to bring the measured effect to its halfway point. A higher EC50 goes with weaker potency. In the case of `CC(C)S(=O)(=O)N1CCC(F)(c2cncc(N3C(=O)c4ccc(Cl)cc4C3(C)C)c2)CC1` [Example 31, 5-Chloro-2-[5-(4-fluoro-1-propan-2-ylsulfonylpiperidin-4-yl)pyridin-3-yl]-3,3-dimethylisoindol-1-one], the figures for the concentration for a half-maximal effect (EC50) on human CYP11B1 and on human CYP11B2 were 772 nM and 1.5 nM, respectively.

Take `CCS(=O)(=O)N1CC(c2cncc(N3C(=O)c4ccc(Cl)cc4C3(C)C)c2)C1` [Example 32, 5-Chloro-2-[5-(1-ethylsulfonylazetidin-3-yl)pyridin-3-yl]-3,3-dimethylisoindol-1-one]: the EC50 at human CYP11B1 was found to be 616 nM; at human CYP11B2, 7 nM.

Turning to `CC(=O)N1CC(c2cncc(N3C(=O)c4ccc(Cl)cc4C3(C)C)c2)C1` [Example 33, 2-[5-(1-Acetylazetidin-3-yl)pyridin-3-yl]-5-chloro-3,3-dimethylisoindol-1-one], the half-maximal effective concentration (EC50) on human CYP11B1 stood at 4550 nM; on human CYP11B2 it was 148 nM.

Consider `CCCS(=O)(=O)N1CC(c2cncc(N3C(=O)c4ccc(Cl)cc4C3(C)C)c2)C1` [Example 34, 5-Chloro-3,3-dimethyl-2-[5-(1-propylsulfonylazetidin-3-yl)pyridin-3-yl]isoindol-1-one], for which the values for the EC50 on human CYP11B1 and at human CYP11B2 were 492 nM and 13 nM, respectively.

With `CC1(C)c2cc(Cl)ccc2C(=O)N1c1cncc(C2CN(S(=O)(=O)C3CC3)C2)c1` [Example 35, 5-Chloro-2-[5-(1-cyclopropylsulfonylazetidin-3-yl)pyridin-3-yl]-3,3-dimethylisoindol-1-one], the EC50 at human CYP11B1 came out at 325 nM; on human CYP11B2, 8 nM.

With `Cc1ccncc1C(=O)N1CC(c2cncc(N3C(=O)c4ccc(Cl)cc4C3(C)C)c2)C1` [Example 36, 5-Chloro-3,3-dimethyl-2-[5-[1-(4-methylpyridine-3-carbonyl)azetidin-3-yl]pyridin-3-yl]isoindol-1-one], the EC50 stood at 1400 nM at human CYP11B1 and 18 nM on human CYP11B2.

For the compound `CCCS(=O)(=O)N1CCC(F)(c2cncc(N3C(=O)c4ccc(Cl)cc4C3(C)C)c2)CC1` [Example 37, 5-Chloro-2-[5-(4-fluoro-1-propylsulfonyl-4-piperidyl)-3-pyridyl]-3,3-dimethyl-isoindolin-1-one], the EC50 on human CYP11B1 stood at 98 nM; on human CYP11B2 it was 2 nM.

Take `CC1(C)c2cc(Cl)ccc2C(=O)N1c1cncc(C2(F)CCN(S(=O)(=O)C3CC3)CC2)c1` [Example 38, 5-Chloro-2-[5-(1-cyclopropylsulfonyl-4-fluoro-4-piperidyl)-3-pyridyl]-3,3-dimethyl-isoindolin-1-one]: the 50% effective concentration (EC50) on human CYP11B1 came out at 575 nM; at human CYP11B2 it was 1 nM.

As for `CC(C)S(=O)(=O)N1CCC(F)(c2cncc(N3C(=O)c4ccc(C#N)cc4C3(C)C)c2)CC1` [Example 39, 2-[5-(4-Fluoro-1-isopropylsulfonyl-4-piperidyl)-3-pyridyl]-3,3-dimethyl-1-oxo-isoindoline-5-carbonitrile], the EC50 was 1850 nM on human CYP11B1 and 9 nM on human CYP11B2.

As to `CCS(=O)(=O)N1CCC(F)(c2cncc(N3C(=O)c4ccc(OC)nc4C3(C)C)c2)CC1` [Example 40, 6-[5-(1-Ethylsulfonyl-4-fluoro-4-piperidyl)-3-pyridyl]-2-methoxy-7,7-dimethyl-pyrrolo[3,4-b]pyridin-5-one], the EC50 at human CYP11B1 came to 2420 nM; on human CYP11B2 it was 19 nM.

`COc1ccc2c(n1)C(C)(C)N(c1cncc(C3(F)CCN(C(=O)c4cnn(C)c4)CC3)c1)C2=O` [Example 41, 6-[5-[4-Fluoro-1-(1-methylpyrazole-4-carbonyl)-4-piperidyl]-3-pyridyl]-2-methoxy-7,7-dimethyl-pyrrolo[3,4-b]pyridin-5-one]: the EC50 is 986 nM on human CYP11B1 and 35 nM at human CYP11B2.

For the compound `COc1ccc2c(n1)C(C)(C)N(c1cncc(C3(F)CCN(S(=O)(=O)C(C)C)CC3)c1)C2=O` [Example 42, 6-[5-(4-Fluoro-1-isopropylsulfonyl-4-piperidyl)-3-pyridyl]-2-methoxy-7,7-dimethyl-pyrrolo[3,4-b]pyridin-5-one], the figures for the EC50 at human CYP11B1 and at human CYP11B2 were 8070 nM and 34 nM, respectively.
